In US20250281424A1 (New York Blood Center, Inc, priority 2020, published 2025) one finds inhibition and IC50 data, which are given here for 19 molecules.

In this test the target is T1, human PF4 (Homo sapiens, UniProt P02776).
T1 construct: PF4 is a 70 amino acid, lysine-rich 7.8 kDa platelet-specific protein; made in house; host or cells: Escherichia coli BL21DE3 pLysS (pT7-7) and/or Drosophila S2 cells
T1 sequence (P02776 32-101): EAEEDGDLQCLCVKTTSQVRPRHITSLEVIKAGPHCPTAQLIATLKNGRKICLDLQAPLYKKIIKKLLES
The test can be described thus: Inhibition of PF4 tetramer formation (BS3 cross-linking, SDS-PAGE). Type of test: biochemical. Conditions: for inhibition at 5 µM: 5 μM inhibitor; for inhibition at 10 µM: 10 μM inhibitor (column A); for IC50: read-out: IC50 of PF4 tetramer formation inhibition; for inhibition at 1 µM: 1 μM inhibitor; for inhibition at 3 µM: 3 μM inhibitor (column A). The procedure, abridged: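 Monomer, dimer, trimer and tetramer fractions were quantified by densitometry after reducing 12% SDS-PAGE of BS3-cross-linked (0.2 mM, 30 min, room temperature) PF4. Before cross-linking, 10 μg/ml E. coli-expressed human WT PF4 in PBS was exposed to compound for 15 min at 37° C or 60 min at room temperature; controls lacked compound.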

The mark [1] stands for this setting: read-out: % inhibition of PF4 tetramer formation at single concentration of inhibitor.

Broadly, the IC50 is the midpoint of a concentration-inhibition curve. `CC(C)(C)OC(=O)NCCC(=O)C1C(=O)c2ccc(S(=O)(=O)c3ccc4c(c3)C(=O)C(C(=O)CCNC(=O)OC(C)(C)C)C4=O)cc2C1=O` (centres unmarked) [Example 164, tert-butyl N-[3-(5-{[2-(3-{[(tert-butoxy)carbonyl]amino}propanoyl)-1,3-dioxo-2,3-dihydro-1H-inden-5-yl]sulfonyl}-1,3-dioxo-2,3-dihydro-1H-inden-2-yl)-3-oxopropyl]carbamate]: the IC50 was 5 µM. Also, under setting [1], the inhibition at 5 µM was found to be 70% and the inhibition at 10 µM came to 82%.

Regarding `O=C(NC1CCS(=O)(=O)C1)C1C(=O)c2ccc(Oc3ccc4c(c3)C(=O)C(C(=O)NC3CCS(=O)(=O)C3)C4=O)cc2C1=O` (centres unmarked) [Example 366, N-(1,1-dioxo-1λ^6-thiolan-3-yl)-5-({2-[(1,1-dioxo-1λ^6-thiolan-3-yl)carbamoyl]-1,3-dioxo-2,3-dihydro-1H-inden-5-yl}oxy)-1,3-dioxo-2,3-dihydro-1H-indene-2-carboxamide], the IC50 amounted to 0.55 µM. Moreover, under setting [1], the inhibition at 1 µM turned out to be 41% and the inhibition at 3 µM was found to be 60%.

Take `O=C(c1ccc2c(c1)C(=O)C(C(=O)CC1CCCC1=O)C2=O)c1ccc2c(c1)C(=O)C(C(=O)CC1CCCC1=O)C2=O` (centres unmarked) [Example 261, 5-{1,3-dioxo-2-[2-(2-oxocyclopentyl)acetyl]-2,3-dihydro-1H-indene-5-carbonyl}-2-[2-(2-oxocyclopentyl)acetyl]-2,3-dihydro-1H-indene-1,3-dione]: the IC50 turned out to be 1.32 µM. Further, under setting [1], the inhibition at 1 µM came out at 67% and the inhibition at 3 µM turned out to be 77%.

For `CC(C)[C@@H](N)C(=O)C1C(=O)c2ccc(S(=O)(=O)c3ccc4c(c3)C(=O)C(C(=O)[C@H](N)C(C)C)C4=O)cc2C1=O` (stereo partly drawn) [Example 353, 2-[(2R)-2-amino-3-methylbutanoyl]-5-({2-[(2R)-2-amino-3-methylbutanoyl]-1,3-dioxo-2,3-dihydro-1H-inden-5-yl}sulfonyl)-2,3-dihydro-1H-indene-1,3-dione], under setting [1], the inhibition at 1 µM was determined as 22% and the inhibition at 3 µM worked out at 37%.

With `COc1cc(CCNC(=O)C2C(=O)c3ccc(C(=O)c4ccc5c(c4)C(=O)C(C(=O)NCCc4cc(OC)cc(OC)c4)C5=O)cc3C2=O)cc(OC)c1` (centres unmarked) [Example 100, N-[2-(3,5-dimethoxyphenyl)ethyl]-5-(2-{[2-(3,5-dimethoxyphenyl)ethyl]carbamoyl}-1,3-dioxo-2,3-dihydro-1H-indene-5-carbonyl)-1,3-dioxo-2,3-dihydro-1H-indene-2-carboxamide], the IC50 is roughly 13 µM.

Turning to `Cc1ccc(NC(=O)C2C(=O)c3ccc(C(=O)c4ccc5c(c4)C(=O)C(C(=O)Nc4ccc(C)cc4)C5=O)cc3C2=O)cc1` (centres unmarked) [Example 91, N-(4-methylphenyl)-5-{2-[(4-methylphenyl)carbamoyl]-1,3-dioxo-2,3-dihydro-1H-indene-5-carbonyl}-1,3-dioxo-2,3-dihydro-1H-indene-2-carboxamide], under setting [1], the inhibition at 5 µM worked out at 20% and the inhibition at 10 µM worked out at 35%.

As for `CC(C)(C)OC(=O)N1CCCC[C@H]1C(=O)C1C(=O)c2ccc(-c3ccc4c(c3)C(=O)C(C(=O)[C@@H]3CCCCN3C(=O)OC(C)(C)C)C4=O)cc2C1=O` (stereo partly drawn) [Example 212, tert-butyl (2S)-2-{2′-[(2S)-1-[(tert-butoxy)carbonyl]piperidine-2-carbonyl]-1,1′,3,3′-tetraoxo-1H,1′H,2H,2′H,3H,3′H-[5,5′-biindene]-2-carbonyl}piperidine-1-carboxylate], the IC50 came out at 5.5 µM. Besides, under setting [1], the inhibition at 5 µM was 91% and the inhibition at 10 µM was 88%.

On to `CCNC(=O)C1C(=O)c2ccc(Oc3ccc4c(c3)C(=O)C(C(=O)NCC)C4=O)cc2C1=O` (centres unmarked) [Example 334, N-ethyl-5-{[2-(ethylcarbamoyl)-1,3-dioxo-2,3-dihydro-1H-inden-5-yl]oxy}-1,3-dioxo-2,3-dihydro-1H-indene-2-carboxamide], for which, under setting [1], the inhibition at 1 µM came to 27% and the inhibition at 3 µM turned out to be 40%.

As to `COCC(=O)C1C(=O)c2ccc(C(=O)c3ccc4c(c3)C(=O)C(C(=O)COC)C4=O)cc2C1=O` (centres unmarked) [Example 234, 2-(2-methoxyacetyl)-5-[2-(2-methoxyacetyl)-1,3-dioxo-2,3-dihydro-1H-indene-5-carbonyl]-2,3-dihydro-1H-indene-1,3-dione], the 50% inhibitory concentration (IC50) is 1.51 µM. For the same molecule, under setting [1], the inhibition at 1 µM was 21% and the inhibition at 3 µM was determined as 72%.

In the case of `O=C(c1ccc2c(c1)C(=O)C(C(=O)Nc1ccc(Cl)cc1Cl)C2=O)c1ccc2c(c1)C(=O)C(C(=O)Nc1ccc(Cl)cc1Cl)C2=O` (centres unmarked) [Example 80, N-(2,4-dichlorophenyl)-5-{2-[(2,4-dichlorophenyl)carbamoyl]-1,3-dioxo-2,3-dihydro-1H-indene-5-carbonyl}-1,3-dioxo-2,3-dihydro-1H-indene-2-carboxamide], under setting [1], the inhibition at 5 µM was 90% and the inhibition at 10 µM is 90%.

With `O=C(c1ccc2c(c1)C(=O)C(C(=O)CSc1ccncc1)C2=O)c1ccc2c(c1)C(=O)C(C(=O)CSc1ccncc1)C2=O` (centres unmarked) [Example 289, 5-{1,3-dioxo-2-[2-(pyridin-4-ylsulfanyl)acetyl]-2,3-dihydro-1H-indene-5-carbonyl}-2-[2-(pyridin-4-ylsulfanyl)acetyl]-2,3-dihydro-1H-indene-1,3-dione], under setting [1], the inhibition at 1 µM is 27% and the inhibition at 3 µM stood at 52%.

`CCOC(=O)NC(=O)C1C(=O)c2ccc(C(=O)c3ccc4c(c3)C(=O)C(C(=O)NC(=O)OCC)C4=O)cc2C1=O` (centres unmarked) [Example 16, 5,5′-carbonylbis((1,3-dioxo-indane-2-carbonyl)-carbamic acid ethyl ester)]: the concentration for half-maximal inhibition (IC50) came to 20 µM. Besides, the inhibition at 30 µM (30 μM inhibitor, read-out: % inhibition of PF4 tetramer formation at single concentration of inhibitor) stood at 78%.

For `COC(=O)[C@@H]1C[C@H]1C(=O)C1C(=O)c2ccc(C(=O)c3ccc4c(c3)C(=O)C(C(=O)[C@@H]3C[C@H]3C(=O)OC)C4=O)cc2C1=O` (stereo partly drawn) [Example 217, methyl (1R,2R)-2-(5-{2-[(1R,2R)-2-(methoxycarbonyl)cyclopropanecarbonyl]-1,3-dioxo-2,3-dihydro-1H-indene-5-carbonyl}-1,3-dioxo-2,3-dihydro-1H-indene-2-carbonyl)cyclopropane-1-carboxylate], the IC50 is 1.2 µM. For the same molecule, under setting [1], the inhibition at 5 µM was determined as 91% and the inhibition at 10 µM amounted to 95%.

Turning to `CC(C)(C)OC(=O)N1CSC[C@H]1C(=O)C1C(=O)c2ccc(C(=O)c3ccc4c(c3)C(=O)C(C(=O)[C@@H]3CSCN3C(=O)OC(C)(C)C)C4=O)cc2C1=O` (stereo partly drawn) [Example 129, tert-butyl (4R)-4-(5-{2-[(4R)-3-[(tert-butoxy)carbonyl]-1,3-thiazolidine-4-carbonyl]-1,3-dioxo-2,3-dihydro-1H-indene-5-carbonyl}-1,3-dioxo-2,3-dihydro-1H-indene-2-carbonyl)-1,3-thiazolidine-3-carboxylate], the IC50 is roughly 2 µM.

In the case of `CC1(C)O[C@H]2O[C@@H](/C(O)=C3\C(=O)c4ccc(C(=O)c5ccc6c(c5)C(=O)/C(=C(\O)[C@@H]5O[C@@H]7OC(C)(C)O[C@@H]7[C@H]7OC(C)(C)O[C@@H]75)C6=O)cc4C3=O)[C@H]3OC(C)(C)O[C@@H]3[C@H]2O1` [Example 135, 5-{1,3-dioxo-2-[(1S,2R,6R,8R,9S)-4,4,11,11-tetramethyl-3,5,7,10,12-pentaoxatricyclo[7.3.0.0^2,^6]dodecane-8-carbonyl]-2,3-dihydro-1H-indene-5-carbonyl}-2-[(1S,2R,6R,8R,9S)-4,4,11,11-tetramethyl-3,5,7,10,12-pentaoxatricyclo[7.3.0.0^2,^6]dodecane-8-carbonyl]-2,3-dihydro-1H-indene-1,3-dione], the IC50 is 3.8 µM. Further, under setting [1], the inhibition at 5 µM came out at 79% and the inhibition at 10 µM came out at 88%.

`O=C(c1ccc2c(c1)C(=O)C(C(=O)Cn1cccn1)C2=O)c1ccc2c(c1)C(=O)C(C(=O)Cn1cccn1)C2=O` (centres unmarked) [Example 126, 5-{1,3-dioxo-2-[2-(1H-pyrazol-1-yl)acetyl]-2,3-dihydro-1H-indene-5-carbonyl}-2-[2-(1H-pyrazol-1-yl)acetyl]-2,3-dihydro-1H-indene-1,3-dione]: the IC50 came to 3.1 µM. Besides, under setting [1], the inhibition at 5 µM came out at 88% and the inhibition at 10 µM amounted to 89%.

Consider `CC(C)(C)OC(=O)N1CC[C@H]1C(=O)C1C(=O)c2ccc(S(=O)(=O)c3ccc4c(c3)C(=O)C(C(=O)[C@@H]3CCN3C(=O)OC(C)(C)C)C4=O)cc2C1=O` (stereo partly drawn) [Example 138, tert-butyl (2S)-2-[5-({2-[(2S)-1-[(tert-butoxy)carbonyl]azetidine-2-carbonyl]-1,3-dioxo-2,3-dihydro-1H-inden-5-yl}sulfonyl)-1,3-dioxo-2,3-dihydro-1H-indene-2-carbonyl]azetidine-1-carboxylate], for which the 50% inhibitory concentration (IC50) was 4.1 µM.

As for `CC(C)[C@@H](N)C(=O)C1C(=O)c2ccc(C(=O)c3ccc4c(c3)C(=O)C(C(=O)[C@H](N)C(C)C)C4=O)cc2C1=O` (stereo partly drawn) [Example 352, 2-[(2R)-2-amino-3-methylbutanoyl]-5-{2-[(2R)-2-amino-3-methylbutanoyl]-1,3-dioxo-2,3-dihydro-1H-indene-5-carbonyl}-2,3-dihydro-1H-indene-1,3-dione], under setting [1], the inhibition at 1 µM was determined as 35% and the inhibition at 3 µM came to 78%.

For `CC(C)C[C@@H](N)C(=O)C1C(=O)c2ccc(Oc3ccc4c(c3)C(=O)C(C(=O)[C@H](N)CC(C)C)C4=O)cc2C1=O` (stereo partly drawn) [Example 357, 2-[(2R)-2-amino-4-methylpentanoyl]-5-({2-[(2R)-2-amino-4-methylpentanoyl]-1,3-dioxo-2,3-dihydro-1H-inden-5-yl}oxy)-2,3-dihydro-1H-indene-1,3-dione], the IC50 amounted to 1.35 µM. Under setting [1], the inhibition at 1 µM turned out to be 39% and the inhibition at 3 µM came to 74%.
